The values that follow come from ChEMBL document CHEMBL4004872, “A robust synthesis of functionalized 2H-indazoles via solid state melt reaction (SSMR) and their anti-tubercular activity” (Bioorg Med Chem Lett, 2017).

Molecules are shown by their SMILES. In brackets after ≈: the same amount, converted by molar mass.

In data set [1] the test system is Mycobacterium tuberculosis. The data set is described as follows: Antitubercular activity against Mycobacterium tuberculosis H37Rv after 7 days by Alamar blue assay. Format: functional. The settings on record: 168 h. A general note: The colour change of resazurin is a common sign of viable cells or microbes.
Data set [2] is described as follows: Cytotoxicity against mouse RAW264.7 cells assessed as growth inhibition at 50 ug/ml after 48 hrs by MTT assay relative to control. The settings on record: read-out: GI. It is filed as cell-based. Background: Formazan colour is commonly taken as a measure of viable cells.

As usually defined, the MIC99 is an inhibitory concentration at the 99% level, which refers to growth in some studies and to a panel of isolates in others. Lower therefore signals greater potency.

In turn, `O=C(Nc1ccccn1)c1ccccc1-n1cc2ccccc2n1` gave an MIC99 in data set [1] of 19.9 µM (≈ 6.26 µg/mL). The inhibition at 48 h, 50 ug/ml in data set [2] was 31.8%. As for `COc1ccc(NC(=O)c2ccccc2-n2cc3ccccc3n2)cc1`, the MIC99 in data set [1] came out at 36.4 µM (≈ 12.5 µg/mL). Still for that read-out and setting: in the case of `COc1ccc(CNC(=O)c2ccccc2-n2cc3ccccc3n2)cc1` it was 35 µM (≈ 12.5 µg/mL); in that of `O=C(NCc1ccc(F)cc1)c1ccccc1-n1cc2ccccc2n1`, 36.3 µM (≈ 12.6 µg/mL). `O=C(NCc1ccccc1)c1ccccc1-n1cc2ccc(Cl)cc2n1` had an MIC99 in data set [1] of 17.3 µM (≈ 6.26 µg/mL). Further, the inhibition at 48 h, 50 ug/ml in data set [2] worked out at 30.6%. In data set [1], `CCCCNC(=O)c1ccccc1-n1cc2ccccc2n1` came in with an MIC99 of 85.3 µM (≈ 25 µg/mL). As to `O=C(NCc1ccccc1)c1ccccc1-n1cc2ccc(Br)cc2n1`, the MIC99 in data set [1] amounted to 56.4 µM (≈ 22.9 µg/mL).

In turn, `Cc1ccnc(NC(=O)c2ccccc2-n2cc3ccccc3n2)c1` registered an MIC99 in data set [1] of 38.1 µM (≈ 12.5 µg/mL). In turn, `O=C(NCc1ccc(Cl)cc1)c1ccccc1-n1cc2ccccc2n1` returned an MIC99 in data set [1] of 8.66 µM (≈ 3.13 µg/mL). The inhibition at 48 h, 50 ug/ml in data set [2] came to 28.1%. In data set [1], `O=C(NCc1ccccc1)c1ccccc1-n1cc2ccccc2n1` displayed an MIC99 of 19.1 µM (≈ 6.26 µg/mL). Moreover, the inhibition at 48 h, 50 ug/ml in data set [2] was determined as 31.6%.

As for `COc1cc(NC(=O)c2ccccc2-n2cc3ccccc3n2)cc(OC)c1OC`, the MIC99 in data set [1] was found to be 7.75 µM (≈ 3.13 µg/mL). In addition, in data set [2], the inhibition at 48 h, 50 ug/ml is 32.1%. For `O=C(Nc1ccccc1O)c1ccccc1-n1cc2ccccc2n1`, the MIC99 in data set [1] was determined as 38 µM (≈ 12.5 µg/mL). In other words, the double-digit micromolar range. On the same count and under the same terms, in the case of `O=C(NC1CCCCC1)c1ccccc1-n1cc2ccccc2n1` it was 78.4 µM (≈ 25 µg/mL). `O=C(NCCc1c[nH]c2ccccc12)c1ccccc1-n1cc2ccccc2n1`: the MIC99 in data set [1] was found to be 16.4 µM (≈ 6.25 µg/mL). Further, in data set [2], the inhibition at 48 h, 50 ug/ml turned out to be 18.8%. For `O=C(Nc1ccccc1)c1ccccc1-n1cc2ccccc2n1`, the MIC99 in data set [1] amounted to 15.8 µM (≈ 4.96 µg/mL). The inhibition at 48 h, 50 ug/ml in data set [2] was 39.6%. In data set [1], `CC[C@@H](CO)NCCN[C@@H](CC)CO` [ETHAMBUTOL] yielded an MIC99 of 7.6 µM (≈ 1.55 µg/mL). Molecule `Cc1ccc(CNC(=O)c2ccccc2-n2cc3ccccc3n2)cc1` gave an MIC99 in data set [1] of 9.16 µM (≈ 3.13 µg/mL). The inhibition at 48 h, 50 ug/ml in data set [2] is 34.5%. Taken in the same sequence, the figures for `O=C(NCc1ccccc1Cl)c1ccccc1-n1cc2ccccc2n1` were 10.6 µM (≈ 3.83 µg/mL) and 23.7%.

As to `O=C(Nc1ccc(F)cc1)c1ccccc1-n1cc2ccccc2n1`, the MIC99 in data set [1] is 37.8 µM (≈ 12.5 µg/mL). In data set [1], `O=C(NCc1ccccc1)c1ccccc1-n1cc2cc3c(cc2n1)OCO3` gave an MIC99 of 4.2 µM (≈ 1.56 µg/mL). The inhibition at 48 h, 50 ug/ml in data set [2] worked out at 22.9%.

On to `O=C(NCc1ccccc1)c1ccccc1-n1cc2cc(Br)ccc2n1`, for which the MIC99 in data set [1] turned out to be 7.72 µM (≈ 3.14 µg/mL). In data set [2], the inhibition at 48 h, 50 ug/ml stood at 40.5%.

In the case of `CC(C)(C)NC(=O)c1ccccc1-n1cc2ccccc2n1`, the MIC99 in data set [1] amounted to 42.7 µM (≈ 12.5 µg/mL). That is a double-digit micromolar value. Still for that read-out and setting: to `CO[C@H]1/C=C/O[C@@]2(C)Oc3c(C)c(O)c4c(O)c(c(/C=N/N5CCN(C)CC5)c(O)c4c3C2=O)NC(=O)/C(C)=C\C=C\[C@H](C)[C@H](O)[C@@H](C)[C@@H](O)[C@@H](C)[C@H](OC(C)=O)[C@@H]1C` [RIFAMPIN] belongs 0.5 µM (≈ 0.411 µg/mL). In data set [1], `Cc1ccc(NC(=O)c2ccccc2-n2cc3ccccc3n2)c(C)c1` registered an MIC99 of 18.3 µM (≈ 6.25 µg/mL). In data set [2], the inhibition at 48 h, 50 ug/ml turned out to be 36.7%. Molecule `NNC(=O)c1ccncc1` [ISONIAZID] registered an MIC99 in data set [1] of 0.4 µM (≈ 0.0549 µg/mL).
